Data as given in patent US5599793A, “Antithromobotic agents” (Eli Lilly and Company, priority 1995, dated 1997).

Tests used:
[1] = Index of bioavailability (% Relative Activity from plasma TT AUC, oral vs i.v.); type: in vivo; conditions: dose-adjusted AUC of plasma TT, p.o. versus i.v. bolus
Protocol: Plasma thrombin time (TT) and activated partial thromboplastin time (APTT) are measured with a fibrometer. Blood is sampled from a jugular catheter and collected in syringe containing sodium citrate (3.8%, 1 part to 9 parts blood). To measure TT, rat plasma (0.1 mL) is mixed with saline (0.1 mL) and bovine thrombin (0.1 mL, 30 U/mL in TRIS buffer; Parke Davis) at 37° C. For APTT, plasma (0.1 mL) and APTT solution (0.1 mL, Organon Teknika) are incubated for 5 minutes (37° C.) and CaCl2 (0.01 mL, 0.025M) is added to start coagulation. Assays are done in duplicate and averaged.
A measure of bioactivity, plasma thrombin time (TT), served as a substitute for the assay of parent compound on the assumption that increments in TT resulted from thrombin inhibition by parent only. The time course of the effect of the thrombin inhibitor upon TT is determined after i.v. bolus administration to anesthetized rats and after oral treatment of fasted conscious rats. Due to limitations of blood volume and the number of points required to determine the time course from time of treatment to the time when the response returned to pretreatment values, two populations of rats are used. Each sample population represented alternating sequential time points. The average TT over the time course is used to calculate area under the curve (AUC). The index of bioavailability is calculated by the formula shown below and is expressed as percent relative activity.
The area under the curve (AUC) of the plasma TT time course is determined and adjusted for the dose. This index of bioavailability is termed "% Relative Activity" and is calculated as [formula] Compounds
Compound solutions are prepared fresh daily in normal saline and are injected as a bolus or are infused starting 15 minutes before and continuing throughout the experimental perturbation which is 15 minutes in the arteriovenous shunt model and 60 minutes in the FeCl3 model of arterial injury and in the spontaneous thombosis model. Bolus injection volume is 1 mL/kg for i.v., and 5 mL/kg for p.o. and infusion volume is 3 mL/hr.

[2] = biological target: T1, Trypsin (Bos taurus, UniProt P00760); test: Serine protease selectivity, chromogenic substrate (Kass), trypsin; type: biochemical, bovine; conditions: substrate N-Benzoyl-Phe-Val-Arg-p-nitroanilide
T1 construct: Bovine trypsin is purchased; purchased Worthington Biochemicals, Freehold, N.J
T1 sequence (P00760 24-246): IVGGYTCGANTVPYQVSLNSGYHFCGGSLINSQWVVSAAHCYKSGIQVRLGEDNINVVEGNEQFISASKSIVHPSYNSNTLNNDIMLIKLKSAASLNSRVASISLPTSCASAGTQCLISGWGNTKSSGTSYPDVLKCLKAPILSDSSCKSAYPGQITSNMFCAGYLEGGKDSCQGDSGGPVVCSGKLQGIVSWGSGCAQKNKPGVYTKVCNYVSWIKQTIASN
Protocol: The assay is carried out by mixing 50 μL buffer (0.03M Tris, 0.15M NaCl, pH 7.4) with 25 μL of bovine thrombin or human thrombin solution (0.21 mg/mL of thrombostat bovine thrombin, Parke-Davis, or purified human thrombin, Enzyme Research Laboratories, South Bend, Ind., at about 8 NIH units/mL, in the same buffer) and 25 μL of test compound in a solvent (in 50% aqueous methanol, v:v). The 150 μL of an aqueous solution of the chromogenic substrate (at 0.25 mg/mL) are added and the rates of hydrolysis of the substrate are measured by monitoring the reactions at 405 nm for the release of p-nitroaniline. Standard curves are constructed by plotting free thrombin concentration against hydrolysis rate. The hydrolysis rates observed with test compounds are then converted to "free thrombin" values in the respective assays by use of the standard curves. The bound thrombin (bound to test compound) is calculated by subtracting the amount of free thrombin observed in each assay from the known initial amount of thrombin used in the assay. The amount of free inhibitor in each assay is calculated by subtracting the number of moles of bound thrombin from the number of moles of added inhibitor (test compound).
Kass is calculated for a range of concentrations of test compounds and the mean value is reported in units of liter per mole.
By substantially following the procedures described above for human thrombin, and using other human blood coagulation system serine proteases and proteases of the fibrinolytic system with the appropriate chromogenic substrates, identified below, selectivity of the compounds of the present invention with respect to the coagulation factor serine proteases and with respect to the fibrinolytic system serine proteases are evaluated as well as their substantial lack of interference with serine proteases of the fibrinolytic system. Thrombin inhibitors preferably should spare fibrinolysis induced by urokinase, tissue plasminogen activator (t-PA) and streptokinase. This would be important to the therapeutic use of such agents as an adjunct to streptokinase, t-PA or urokinase thrombolytic therapy and to the use of such agents as an endogenous fibrinolysis-sparing (with respect to t-PA and urokinase) antithrombotic agent. In addition to the lack of interference with the amidase activity of the fibrinolytic proteases, such fibrinolytic system sparing can be studied by the use of human plasma clots and their lysis by the respective fibrinolytic plasminogen activators.
Human factors X, Xa, IXa, XIa, and XIIa are purchased from Enzyme Research Laboratories, South Bend, Ind.; human urokinase from Leo Pharmaceuticals, Denmark; and recombinant activated Protein C (aPC) is prepared at Eli Lilly and Co. substantially according to U.S. Pat. No. 4,981,952. Chromogenic substrates: N-Benzoyl-Ile-Glu-Gly-Arg-p-nitroanilide (for factor Xa); N-Cbz-D-Arg-Gly-Arg-p-nitroanilide (for factor IXa assay as the factor Xa substrate); Pyroglutamyl-Pro-Arg-p-nitroanilide (for Factor XIa and for aPC); H-D-Pro-Phe-Arg-p-nitroanilide (for factor XIIa); and Pyroglutamyl-Gly-Arg-p-nitroanilide (for urokinase); are purchased from KabiVitrum, Stockholm, Sweden, or from Midwest Biotech, Fishers, Ind. Bovine trypsin is purchased from Worthington Biochemicals, Freehold, N.J., and human plasma kallikrein from Kabi Vitrum, Stockholm, Sweden. Chromogenic substrate H-D-Pro-Phe-Arg-p-nitroanilide for plasma kallikrein is purchased from Kabi Vitrum, Stockholm, Sweden. N-Benzoyl-Phe-Val-Arg-p-nitroanilide, the substrate for human thrombin and for trypsin, is synthesized according to procedures described above for the compounds of the present invention, using known methods of peptide coupling from commercially available reactants or purchased from Midwest Biotech, Fishers, Ind.

Row | Structure (SMILES) | % oral/i.v. activity (Rat) [1] | Enzyme Kass, Trypsin [2] | Enzyme Kass, Trypsin ([2]; HCl)
1 | C[C@H]1C[C@@H](C(=O)N[C@H](C=O)CCCNC(=N)N)N(C(=O)[C@H]2CCCCN2)C1.Cl.Cl (relative stereo) [Example 1, D-homoprolyl-L-cis-4-methyl-prolyl-L-argininal dihydrochloride] | 47% | 390 L/mol × 10^6 | –
2 | Cl.Cl.N=C(N)NCCC[C@@H](C=O)NC(=O)[C@@H]1CC2CCCCC2N1C(=O)[C@H]1CCCCN1 (relative stereo) [Example 7, N-[(1-D-homoprolyl-cis-octahydro-1H-indol-2(S)-yl)carbonyl]-L-argininal dihydrochloride] | 50% | 150 L/mol × 10^6 | –
3 | Cl.Cl.N=C(N)NCCC[C@@H](C=O)NC(=O)[C@@H]1C[C@H](Oc2ccccc2)CN1C(=O)C1NCCC2CCCCC21 (relative stereo) [Example 15, D-1-Piq-Pro(4-cis-phenoxy)-ArgH.2 HCl] | 5% | 140 L/mol × 10^6 | –
4 | CCS(=O)(=O)N[C@@H](C(=O)N1[C@H](C(=O)N[C@H](C=O)CCCNC(=N)N)C[C@@H]2CCCC[C@@H]21)c1ccccc1.Cl (relative stereo) [Example 22, EtSO2 -D-Phg-cis-Ohi-ArgH.HCl] | 30% | 312 L/mol × 10^6 | –
5 | Cl.Cl.N=C(N)NCCCC(C=O)NC(=O)C1CC2CCCCC2N1C(=O)C1NCCC2CCCCC21 [Example 20, D-1-cis-Piq-cis-Ohi-ArgH.2 HCl] | 6% | – | 119 L/mol × 10^6

Next, values leading:

Row | % oral/i.v. activity (Rat) [1] | Enzyme Kass, Trypsin [2] | Enzyme Kass, Trypsin ([2]; HCl) | Structure (SMILES)
6 | 50% | 520 L/mol × 10^6 | – | CC[C@H]1C[C@@H](C(=O)N[C@H](C=O)CCCNC(=N)N)N(C(=O)[C@H]2CCCCN2)C1.Cl.Cl (relative stereo) [Example 2, D-homoprolyl-L-cis-4-ethyl-prolyl-L-argininal dihydrochloride]
7 | 45% | 260 L/mol × 10^6 | – | CCC[C@H]1C[C@@H](C(=O)N[C@H](C=O)CCCNC(=N)N)N(C(=O)[C@H]2CCCCN2)C1.Cl.Cl (relative stereo) [Example 3, D-hPro-Pro(4-cis-n-propyl)-ArgH.2 HCl]
8 | 20% | 150 L/mol × 10^6 | – | Cl.Cl.N=C(N)NCCC[C@@H](C=O)NC(=O)[C@@H]1C[C@H](Cc2ccccc2)CN1C(=O)[C@H]1CCCCN1 (relative stereo) [Example 5, D-hPro-Pro(4-cis-benzyl)-ArgH.2 HCl]
9 | 20% | 270 L/mol × 10^6 | – | Cl.Cl.N=C(N)NCCC[C@H](C=O)NC(=O)[C@@H]1C[C@H](Oc2ccccc2)CN1C(=O)[C@H]1CCCCN1 (relative stereo) [Example 8, D-homoprolyl-L-cis-4-phenoxy-L-prolyl-D-argininal dihydrochloride]
10 | 13% | 130 L/mol × 10^6 | – | Cl.Cl.Cl.N=C(N)NCCC[C@@H](C=O)NC(=O)[C@@H]1C[C@H](Oc2cccnc2)CN1C(=O)[C@H]1CCCCN1 (relative stereo) [Example 9, D-hPro-Pro(4-cis-(3-pyridyloxy))-ArgH.3 HCl]
11 | 9% | 74 L/mol × 10^6 | – | Cl.Cl.Cl.N=C(N)NCCC[C@@H](C=O)NC(=O)[C@@H]1C[C@H](Oc2ccc(N)cc2)CN1C(=O)[C@H]1CCCCN1 (relative stereo) [Example 11, D-hPro-Pro(4-cis-(4-NH2-phenoxy))-ArgH.3 HCl]
